The record followed here is patent US11325883B2, “Functionalized N,N-dialkylamino phenyl ethers and their method of use” (Temple University—Of The Commonwealth System of Higher …, priority 2017, dated 2022).

In test [1] the test system is Gaucher patient fibroblasts (L444P/L444P, GM08760). The experiment in a line: GPN induced calcium release phenotypic assay on Gaucher patient cells. The test is classed as cell-based, human. Particulars: for Maximal % Change in GPN Response / EC50: Gaucher patient cells, 72 hours compound treatment; for Maximal % Change in GPN Response: GPN response with drug/without drug x100; for EC50: Homo sapiens, Fibroblast, 12-point curve in triplicate. An excerpt: Phenotypic Assay: A phenotypic cellular assay utilizing lysosomal storage disorder (LSD) patient derived cells was developed to identify compounds with disease modifying activity to reverse or attenuate the disease phenotype to non-disease levels. […] This functional readout of the LSD diseased state was developed into a high throughput screening assay.
Disruption of lysosomal calcium homeostasis has been linked to the pathophysiology of lysosomal storage disorders including Gaucher disease (Lloyd-Evans, E, Morgan A J, He X, Smith D A, Elliot-Smith E, Sillence D J, Churchill G C, Schuchman E H, Galione A, Platt F M. (2008) Niemann-Pick disease type C1 is a sphingosine storage disease that causes deregulation of lysosomal calcium. Nat Med. 14(11):1247-55. Lloyd-Evans E, Platt F M. (2011) Lysosomal Ca(^2+) homeostasis: role in pathogenesis of lysosomal storage diseases. Cell Calcium. 50(2):200-205. Morgan, A J, Platt, F M, Lloyd-Evans, E and Galione, A (2011) Molecular mechanism of endolysosomal Ca^2+ signaling in health and disease. Biochem. J. 439:349-374.). Calcium release from acidic lysosomal stores can be induced by addition of Gly-Phe-β-napthylamide (GPN), a substrate of cathepsin C, which upon hydrolysis, produces osmotic lysis of lysosomes and release of calcium specifically from lysosomal acidic stores into the cytosol. The increase of intracellular calcium released from lysosomes can be detected with cell membrane permeable calcium sensitive indicators.
(§1) Cells (800 cells/well) were plated with a MultiFlo dispenser (BioTek) and cultured for 24 h at 37° C., 5% CO2. The screening compounds were then added to cells under sterile conditions and continued in culture for 72 hours. Cells were loaded with Screen Quest™ Fluo-8 No Wash Calcium mix (ATT Bio) and analyzed for changes in response to GPN. The data from each well were normalized with basal fluorescence by dividing the maximum fluorescence over the entire real time reading by the initial basal fluorescence. […] EC50 and Hill slope values are determined using a four-parameter dose-response (variable slope) equation in GraphPad Prism. The % change in GPN response is calculated as the ratio of GPN response measured in the presence of drug/GPN response measured in the absence of drug×100. […] The maximal % change in GPN response is calculated as the ratio of GPN response measured in the presence of drug/GPN response measured in the absence of drug×100.
Gaucher patient fibroblasts (Coreill Institute, GM08760) were cultured in EMEM with 15% FBS, 1% Pen/Strep at 37° C./5% CO2. Wild-type patient fibroblasts (Coriell Institute, GM 005659) were used as a control cell line. Cells are plated with a MultiFlo dispenser (800 cells/well in 30 μL of complete growth media) in black/clear bottom 384-well plates and cultured for 24 hours at 37° C., 5% CO2. Compounds of the disclosure are then added to the cells (12 point dose response curve, 150 nM to 30 uM final compound concentration using a 5.0 μL of a 7× stock solution (1.05 μM to 210 μM)) under sterile conditions and continued in culture for 72 hours at 37° C., 5% CO2. For intracellular calcium measurements, media is removed and 20 μL of calcium dye mixture (Screen Quest™ Fluo-8 No Wash Calcium mix, ATT Bioquest) is added to each well, incubated for 30 minutes at 37° C., followed by 22° C. for 30 minutes.

For test [2], the system named is Wild-type patient fibroblasts (GM 005659). Particulars: wild type cells. As for the experimental part:
as §1
Gaucher patient fibroblasts (Coreill Institute, GM08760) were cultured in EMEM with 15% FBS, 1% Pen/Strep at 37° C./5% CO2. Wild-type patient fibroblasts (Coriell Institute, GM 005659) were used as a control cell line. […] The data from each well were normalized with basal fluorescence by dividing the maximum fluorescence over the entire real time reading by the initial basal fluorescence.

One may read the EC50 as the midpoint of the concentration-response curve. Take `CN(C)CCOc1ccc(C(=O)C(CC2CC2)c2ccccc2-c2ccc(F)cc2)cc1` (centres unmarked) [Example 4, 3-cyclopropyl-1-(4-(2-(dimethylamino)ethoxy)phenyl)-2-(4′-fluoro-[1,1′-biphenyl]-2-yl)propan-1-one]: in test [1], the “Maximal % Change in GPN Response” value amounted to 360% and the EC50 turned out to be 0.475 µM.
In the same order, the values of `CN(C)CCOc1ccc(C(=O)Cc2ccccc2-c2ccccc2Cl)cc1` [Example 2, 2-(2′-Chloro-[1,1′-biphenyl]-2-yl)-1-(4-(2-(dimethylamino)ethoxy)phenyl)ethanone] are 160% and 1.8 µM.
For the molecule `CCC(C(=O)c1ccc(OCCNC)cc1)c1ccccc1-c1ccc(F)cc1` (centres unmarked) [Example 7, 2-(4′-fluoro-[1,1′-biphenyl]-2-yl)-1-(4-(2-(methylamino)ethoxy)phenyl)butan-1-one], in test [1], the “Maximal % Change in GPN Response” value worked out at 515% and the concentration for a half-maximal effect (EC50) turned out to be 0.425 µM.
In the same order, the values of `CCCC(C(=O)c1ccc(OCCN(C)C)cc1)c1ccccc1-c1ccc(F)cc1` (centres unmarked) [Example 6, 1-(4-(2-(dimethylamino)ethoxy)phenyl)-2-(4′-fluoro-[1,1′-biphenyl]-2-yl)pentan-1-one] are 410% and 0.424 µM.
As for `CCC(C(=O)c1ccc(OCCN(C)C)cc1)c1ccccc1-c1ccc(F)cc1` (centres unmarked) [Example 5, 1-(4-(2-(dimethylamino)ethoxy)phenyl)-2-(4′-fluoro-[1,1′-biphenyl]-2-yl)butan-1-one], in test [1], the “Maximal % Change in GPN Response” value came to 630% and the EC50 was 0.266 µM.
In the same order, the values of `CN(C)CCOc1ccc(C(=O)Cc2ccccc2-c2ccc(F)cc2)cc1` [Example 1, 1-(4-(2-(Dimethylamino)ethoxy)phenyl)-2-(4′-fluoro-[1,1′-biphenyl]-2-yl)ethanone] are 250% and 3.6 µM.
As to `CC/C(=C(\c1ccccc1)c1ccc(OCCN(C)C)cc1)c1ccccc1` [Tamoxifen, reference compound], the “increase in calcium response” value in test [1] (compared with 0.1% DMSO treated Gaucher patient cells) came to 200±50%. Further, the “increase in GPN-induced calcium response” value in test [2] was 30+/−20%.
As to `CCCC(C(=O)c1ccc(OCCNC)cc1)c1ccccc1-c1ccc(F)cc1` (centres unmarked) [Example 8, 2-(4′-fluoro-[1,1′-biphenyl]-2-yl)-1-(4-(2-(methylamino)ethoxy)phenyl)pentan-1-one], in test [1], the “Maximal % Change in GPN Response” value came to 330% and the EC50 came to 0.356 µM.
Regarding `CNCCOc1ccc(C(=O)C(CC(C)C)c2ccccc2-c2ccc(F)cc2)cc1` (centres unmarked) [Example 9, 2-(4′-fluoro-[1,1′-biphenyl]-2-yl)-4-methyl-1-(4-(2-(methylamino)-ethoxy)phenyl)pentan-1-one], in test [1], the “Maximal % Change in GPN Response” value is reported as 617% and the EC50 came to 0.236 µM.
With `CC(C)CC(C(=O)c1ccc(OCCN(C)C)cc1)c1ccccc1-c1ccc(F)cc1` (centres unmarked) [Example 3, 1-(4-(2-(dimethylamino)ethoxy)phenyl)-2-(4′-fluoro-[1,1′-biphenyl]-2-yl)-4-methylpentan-1-one], in test [1], the “Maximal % Change in GPN Response” value came out at 400% and the concentration for a half-maximal effect (EC50) was 0.185 µM.
